Measurements: patent US20110070190A1 (Roche Palo Alto LLC, priority 2009, published 2011)

molecular target: T1, HCV polymerase (NS5B570n-Con1) (Hepatitis C virus genotype 1b, UniProt Q9WMX2); assay: HCV NS5B RNA polymerase activity (incorporation of radiolabeled nucleotide into acid insoluble RNA); format: biochemical, HCV Con1 strain
T1 construct: a 21 amino acid C-terminal deletion of full-length HCV polymerase; made in house; host or cells: E. coli BL21(DE3) pLysS, plasmid pET17b
Protocol: The enzymatic activity of HCV polymerase (NS5B570n-Con1) was measured as the incorporation of radiolabeled nucleotide monophosphates into acid insoluble RNA products. Unincorporated radiolabeled substrate was removed by filtration and scintillant was added to the washed and dried filter plate containing radiolabeled RNA product. The amount of RNA product generated by NS5B570n-Con1 at the end of the reaction was directly proportional to the amount of light emitted by the scintillant.
The HCV polymerase used in the enzymatic activity assay is a 21 amino acid C-terminal deletion of full-length HCV polymerase derived from HCV Con1 strain, genotype 1b (GenBank accession number AJ242654) (NS5B570n-Con1). The NS5B570n-Con1 was sub-cloned downstream to the T7 promoter of the plasmid expression construct pET17b and transformed into E. coli strain BL21(DE3) pLysS for protein expression. A single colony was used to start an innoculum for a 10 L culture in LB media supplemented with 100 μg/mL ampicillin at 37° C. Protein expression was induced by the addition of 0.25 mM isopropyl-β-D-thiogalactopyranoside (IPTG) when the optical density of the culture at […] was 0.8. Induction of protein expression was carried out at 30° C. for 16 h after which the cells were harvested by centrifugation. NS5B570n-Con1 was purified to homogeneity using a three-column purification protocol including subsequent column chromatography on Ni-NTA, SP-Sepharose HP and Superdex 75 resins.
Enzymatic reactions in the presence of cIRES RNA template (see paragraph [00213]) contained 20 nM cIRES RNA, 20 nM NS5B570n-Con1 enzyme, 0.5 μCi of tritiated UTP (Perkin Elmer catalog no. TRK-412; specific activity: 30 to 60 Ci/mmol;), 1 μM each ATP, CTP, and GTP, 40 mM Tris-HCl pH 8.0, 40 mM NaCl, 4 mM DTT (dithiothreitol), 4 mM MgCl2, 5 μl of compound serial diluted in DMSO, and nuclease-free water to a final reaction volume of 50 μl. Enzymatic reactions in the presence of poly A RNA template (see paragraph [00213]) contained 20 nM Poly A:oligo(rU)16 premixed (see section 0004), 20 nM NS5B570n-Con1 enzyme, 1 μCi of tritiated UTP (Perkin Elmer catalog no. TRK-412; specific activity: 30 to 60 Ci/mmol), 40 mM Tris-HCl pH 8.0, 40 mM NaCl, 4 mM DTT (dithiothreitol), 4 mM MgCl2, 5 μl of compound serial diluted in DMSO, and nuclease-free water to a final reaction volume of 50 μl. Reaction mixtures were assembled in 96-well filter plates (cat #MADVN0B, Millipore Co.) and incubated for 2 h at 30° C. Reactions were stopped by addition of 10% final (v/v) trichloroacetic acid and incubated for 40 min at 4° C. Reactions were filtered, washed with 8 reaction volumes of 10% (v/v) trichloroacetic acetic acid, 4 reaction volumes of 70% (v/v) ethanol, air dried, and 25 μl of scintillant (Microscint 20, Perkin-Elmer) was added to each reaction well.
Two RNA templates were used to assay compounds described herein. The cIRES RNA template was 377 nucleotide long and consisted of a partial complementary sequence (36 nucleotides) of the core protein, followed by 341 nucleotide of the complementary sequence of the internal ribosome entry site. The poly A RNA template (GE Amersham catalog number 27-4110) was a homopolymeric RNA pre-annealed to a oligo(rU)16 primer at a molar ratio of 3-to-1 (primer-template).
The amount of light emitted from the scintillant was converted to counts per minute (CPM) on a Topcount® plate reader (Perkin-Elmer, Energy Range: Low, Efficiency Mode: Normal, Count Time: 1 min, Background Subtract: none, Cross talk reduction: Off).
Data was analyzed in Excel® (Microsoft®) and ActivityBase® (Idbs®). The reaction in the absence of enzyme was used to determine the background signal, which was subtracted from the enzymatic reactions. Positive control reactions were performed in the absence of compound, from which the background corrected activity was set as 100% polymerase activity. All data was expressed as a percentage of the positive control. […]

First: O=C(Nc1ccc(-c2cc3c(s2)c(=O)ncn3Cc2ccc(Cl)cc2)cc1Cl)c1ccccn1 [Compound I-1, Pyridine-2-carboxylic acid {2-chloro-4-[1-(4-chloro-benzyl)-4-oxo-1,4-dihydro-thieno[3,2-d]pyrimidin-6-yl]-phenyl}-amide]
Second: O=C(Nc1ccc(-c2cc3c(s2)c(=O)ncn3Cc2ccc(Cl)cc2)cc1)c1ccccn1 [Compound I-39, Pyridine-2-carboxylic acid {4-[1-(4-chloro-benzyl)-4-oxo-1,4-dihydro-thieno[3,2-d]pyrimidin-6-yl]-phenyl}-amide]
The IC50 of the first is 2.5-fold lower: 2 nM for the first, 5 nM for the second. The first is the more potent here.

Compared with Cc1ccc(C(=O)Nc2ccc(-c3cc4c(s3)c(=O)ncn4Cc3ccc(Cl)cc3)cc2)o1 [Compound I-3, 5-Methyl-furan-2-carboxylic acid {4-[1-(4-chloro-benzyl)-4-oxo-1,4-dihydro-thieno[3,2-d]pyrimidin-6-yl]-phenyl}-amide], O=C(Nc1ccc(-c2cc3c(s2)c(=O)ncn3Cc2ccc(Cl)cc2)cc1)c1ccno1 [Compound I-32, Isoxazole-5-carboxylic acid {4-[1-(4-chloro-benzyl)-4-oxo-1,4-dihydro-thieno[3,2-d]pyrimidin-6-yl]-phenyl}-amide] is 34-fold higher in IC50: 9 nM for the first, 308 nM for the second. The first is the more potent here.

Going from Cc1cc(N)n2nc(-c3ccc(-c4cc5c(s4)c(=O)ncn5C[C@H]4CC[C@@H](C)CC4)cc3Cl)cc2n1 [Compound I-4, 6-[4-(7-amino-5-methyl-pyrazolo[1,5-a]pyrimidin-2-yl)-3-chloro-phenyl]-1-(4-methyl-cyclohexylmethyl)-1H-thieno[3,2-d]pyrimidin-4-one] to CCCCOc1ccc(-c2cc3c(s2)c(=O)ncn3Cc2ccc(Cl)cc2)cc1Cl [Compound I-25, 6-(4-Butoxy-3-chloro-phenyl)-1-(4-chloro-benzyl)-1H-thieno[3,2-d]pyrimidin-4-one], the IC50 rises from 10 nM to 155 nM (16-fold).

First: O=c1ncn(Cc2ccc(Cl)cc2)c2cc(-c3ccc(OCc4ccc(F)cc4)cc3)sc12 [Compound I-5, 1-(4-chloro-benzyl)-6-[4-(4-fluoro-benzyloxy)-phenyl]-1H-thieno[3,2-d]pyrimidin-4-one]
Second: COc1ccc(COc2ccc(-c3cc4c(s3)c(=O)ncn4Cc3ccc(Cl)cc3)cc2)cc1 [Compound I-11, 1-(4-chloro-benzyl)-6-[4-(4-methoxy-benzyloxy)-phenyl]-1H-thieno[3,2-d]pyrimidin-4-one]
The IC50 of the first is 2.5-fold lower: 13 nM for the first, 32 nM for the second. The first is the more potent here.

O=C(Nc1ccc(-c2cc3c(s2)c(=O)ncn3Cc2ccc(Cl)cc2)cc1)c1cc(F)ccc1F [Compound I-7, N-{4-[1-(4-Chloro-benzyl)-4-oxo-1,4-dihydro-thieno[3,2-d]pyrimidin-6-yl]-phenyl}-2,5-difluoro-benzamide] and Nc1cc(C(=O)Nc2ccc(-c3cc4c(s3)c(=O)ncn4Cc3ccc(Cl)cc3)cc2)ccn1 [Compound I-9, 2-Amino-N-{4-[1-(4-chloro-benzyl)-4-oxo-1,4-dihydro-thieno[3,2-d]pyrimidin-6-yl]-phenyl}-isonicotinamide] are within 1.5-fold of each other in IC50: 21 nM for the first, 29 nM for the second.

Nc1nccc(C(=O)Nc2ccc(-c3cc4c(s3)c(=O)ncn4Cc3ccc(Cl)cc3)cc2)n1 [Compound I-8, 2-Amino-pyrimidine-4-carboxylic acid {4-[1-(4-chloro-benzyl)-4-oxo-1,4-dihydro-thieno[3,2-d]pyrimidin-6-yl]-phenyl}-amide] and O=C(Nc1ccc(-c2cc3c(s2)c(=O)ncn3Cc2ccc(Cl)cc2)cc1)c1cnccn1 [Compound I-12, Pyrazine-2-carboxylic acid {4-[1-(4-chloro-benzyl)-4-oxo-1,4-dihydro-thieno[3,2-d]pyrimidin-6-yl]-phenyl}-amide] are within 1.5-fold of each other in IC50: 26 nM for the first, 32 nM for the second.

First: Nc1nccc(-c2ccc(-c3cc4c(s3)c(=O)ncn4Cc3ccc(Cl)cc3)cc2)n1 [Compound I-10, 6-[4-(2-Amino-pyrimidin-4-yl)-phenyl]-1-(4-chloro-benzyl)-1H-thieno[3,2-d]pyrimidin-4-one]
Second: Cc1nnc(-c2ccc(-c3cc4c(s3)c(=O)ncn4Cc3ccc(Cl)cc3)cc2)o1 [Compound I-33, 1-(4-Chloro-benzyl)-6-[4-(5-methyl-[1,3,4]oxadiazol-2-yl)-phenyl]-1H-thieno[3,2d]pyrimidin-4-one]
The IC50 of the first is 13-fold lower: 29 nM for the first, 390 nM for the second.

Compared with Cc1ccc(Cn2cnc(=O)c3sc(-c4ccc(-c5ccccc5)cc4)cc32)cc1 [Compound I-13], O=c1ncn(Cc2ccc(Cl)cc2)c2cc(-c3ccc(Oc4ccccc4)cc3)sc12 [Compound I-24, 1-(4-Chloro-benzyl)-6-(4-phenoxy-phenyl)-1H-thieno[3,2-d]pyrimidin-4-one] is 3.3-fold higher in IC50: 45 nM for the first, 150 nM for the second.

Compared with O=C(Nc1ccc(-c2cc3c(s2)c(=O)ncn3Cc2ccc(Cl)cc2)cc1F)c1ccccc1 [Compound I-14, N-{4-[1-(4-Chloro-benzyl)-4-oxo-1,4-dihydro-thieno[3,2-d]pyrimidin-6-yl]-2-fluoro-phenyl}-benzamide], COc1cccc(C(=O)Nc2ccc(-c3cc4c(s3)c(=O)ncn4Cc3ccc(Cl)cc3)cc2Cl)c1 [Compound I-26] is 2.3-fold higher in IC50: 69 nM for the first, 162 nM for the second.

Going from Cc1cc(C(=O)Nc2ccc(-c3cc4c(s3)c(=O)ncn4Cc3ccc(Cl)cc3)cc2)n[nH]1 [Compound I-15, 5-Methyl-1H-pyrazole-3-carboxylic acid {4-[1-(4-chloro-benzyl)-4-oxo-1,4-dihydro-thieno[3,2-d]pyrimidin-6-yl]-phenyl}-amide] to CC(=O)Nc1ccc(-c2cc3c(s2)c(=O)ncn3Cc2ccc(Cl)cc2)cc1 [Compound I-37, N-{4-[1-(4-Chloro-benzyl)-4-oxo-1,4-dihydro-thieno[3,2-d]pyrimidin-6-yl]-phenyl}-acetamide], the IC50 rises from 70 nM to 586 nM (8.4-fold). The first is the more potent here.

Compared with Cc1ncoc1C(=O)Nc1ccc(-c2cc3c(s2)c(=O)ncn3Cc2ccc(Cl)cc2)cc1 [Compound I-18, 4-Methyl-oxazole-5-carboxylic acid {4-[1-(4-chloro-benzyl)-4-oxo-1,4-dihydro-thieno[3,2-d]pyrimidin-6-yl]-phenyl}-amide], O=c1ncn(Cc2ccc(Cl)cc2)c2cc(-c3ccc(NCc4ccccn4)cc3)sc12 [Compound I-23] is 1.8-fold higher in IC50: 77 nM for the first, 139 nM for the second.

First: Cc1ccc(Cn2cnc(=O)c3sc(-c4ccc(-c5cc6ncccc6o5)cc4)cc32)cc1 [Compound I-19, 6-(4-Furo[3,2-b]pyridin-2-yl-phenyl)-1-(4-methyl-benzyl)-1H-thieno[3,2-d]pyrimidin-4-one]
Second: Cc1ccc(Cn2cnc(=O)c3sc(-c4ccc(C(=O)O)cc4)cc32)cc1 [Compound I-36]
The IC50 of the first is 6.5-fold lower: 82 nM for the first, 535 nM for the second.

Compared with O=c1ncn(Cc2ccc(Cl)cc2)c2cc(-c3ccc(SCc4ccccc4)cc3)sc12 [Compound I-20, 6-(4-Benzylsulfanyl-phenyl)-1-(4-chloro-benzyl)-1H-thieno[3,2-d]pyrimidin-4-one], O=C(CCCO)Nc1ccc(-c2cc3c(s2)c(=O)ncn3Cc2ccc(Cl)cc2)cc1Cl [Compound I-30, N-{2-Chloro-4-[1-(4-chloro-benzyl)-4-oxo-1,4-dihydro-thieno[3,2-d]pyrimidin-6-yl]-phenyl}-4-hydroxy-butyramide] is 2.7-fold higher in IC50: 104 nM for the first, 279 nM for the second. The first is the more potent here.

For CC(CCO)C(=O)Nc1ccc(-c2cc3c(s2)c(=O)ncn3Cc2ccc(Cl)cc2)cc1Cl (stereo not drawn) [Compound I-35], the IC50 was 517 nM.
